Assay results reported in patent US10479784B2, “Substituted pyrazin-2-amines as inhibitors of ATR kinase” (Vertex Pharmaceuticals Incorporated, priority 2008, dated 2019).

The molecules below were run against full-length ATR (Homo sapiens (Human), UniProt Q13535) (assay: ATR Inhibition Assay (radioactive-phosphate incorporation)). Conditions: read-out: ATR Ki.
Type: biochemical
In short: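 Full-length human ATR (5 nM) was assayed at 25 °C in 50 mM Tris/HCl pH 7.5, 10 mM MgCl2, 1 mM DTT, with 10 μM [γ-33P]ATP and 800 μM peptide, after 10-min compound preincubation. Reactions were stopped after 24 h, captured on phosphocellulose and counted; Ki(app) came from non-linear regression of initial rates.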

Chain of full-length ATR (Q13535 whole entry): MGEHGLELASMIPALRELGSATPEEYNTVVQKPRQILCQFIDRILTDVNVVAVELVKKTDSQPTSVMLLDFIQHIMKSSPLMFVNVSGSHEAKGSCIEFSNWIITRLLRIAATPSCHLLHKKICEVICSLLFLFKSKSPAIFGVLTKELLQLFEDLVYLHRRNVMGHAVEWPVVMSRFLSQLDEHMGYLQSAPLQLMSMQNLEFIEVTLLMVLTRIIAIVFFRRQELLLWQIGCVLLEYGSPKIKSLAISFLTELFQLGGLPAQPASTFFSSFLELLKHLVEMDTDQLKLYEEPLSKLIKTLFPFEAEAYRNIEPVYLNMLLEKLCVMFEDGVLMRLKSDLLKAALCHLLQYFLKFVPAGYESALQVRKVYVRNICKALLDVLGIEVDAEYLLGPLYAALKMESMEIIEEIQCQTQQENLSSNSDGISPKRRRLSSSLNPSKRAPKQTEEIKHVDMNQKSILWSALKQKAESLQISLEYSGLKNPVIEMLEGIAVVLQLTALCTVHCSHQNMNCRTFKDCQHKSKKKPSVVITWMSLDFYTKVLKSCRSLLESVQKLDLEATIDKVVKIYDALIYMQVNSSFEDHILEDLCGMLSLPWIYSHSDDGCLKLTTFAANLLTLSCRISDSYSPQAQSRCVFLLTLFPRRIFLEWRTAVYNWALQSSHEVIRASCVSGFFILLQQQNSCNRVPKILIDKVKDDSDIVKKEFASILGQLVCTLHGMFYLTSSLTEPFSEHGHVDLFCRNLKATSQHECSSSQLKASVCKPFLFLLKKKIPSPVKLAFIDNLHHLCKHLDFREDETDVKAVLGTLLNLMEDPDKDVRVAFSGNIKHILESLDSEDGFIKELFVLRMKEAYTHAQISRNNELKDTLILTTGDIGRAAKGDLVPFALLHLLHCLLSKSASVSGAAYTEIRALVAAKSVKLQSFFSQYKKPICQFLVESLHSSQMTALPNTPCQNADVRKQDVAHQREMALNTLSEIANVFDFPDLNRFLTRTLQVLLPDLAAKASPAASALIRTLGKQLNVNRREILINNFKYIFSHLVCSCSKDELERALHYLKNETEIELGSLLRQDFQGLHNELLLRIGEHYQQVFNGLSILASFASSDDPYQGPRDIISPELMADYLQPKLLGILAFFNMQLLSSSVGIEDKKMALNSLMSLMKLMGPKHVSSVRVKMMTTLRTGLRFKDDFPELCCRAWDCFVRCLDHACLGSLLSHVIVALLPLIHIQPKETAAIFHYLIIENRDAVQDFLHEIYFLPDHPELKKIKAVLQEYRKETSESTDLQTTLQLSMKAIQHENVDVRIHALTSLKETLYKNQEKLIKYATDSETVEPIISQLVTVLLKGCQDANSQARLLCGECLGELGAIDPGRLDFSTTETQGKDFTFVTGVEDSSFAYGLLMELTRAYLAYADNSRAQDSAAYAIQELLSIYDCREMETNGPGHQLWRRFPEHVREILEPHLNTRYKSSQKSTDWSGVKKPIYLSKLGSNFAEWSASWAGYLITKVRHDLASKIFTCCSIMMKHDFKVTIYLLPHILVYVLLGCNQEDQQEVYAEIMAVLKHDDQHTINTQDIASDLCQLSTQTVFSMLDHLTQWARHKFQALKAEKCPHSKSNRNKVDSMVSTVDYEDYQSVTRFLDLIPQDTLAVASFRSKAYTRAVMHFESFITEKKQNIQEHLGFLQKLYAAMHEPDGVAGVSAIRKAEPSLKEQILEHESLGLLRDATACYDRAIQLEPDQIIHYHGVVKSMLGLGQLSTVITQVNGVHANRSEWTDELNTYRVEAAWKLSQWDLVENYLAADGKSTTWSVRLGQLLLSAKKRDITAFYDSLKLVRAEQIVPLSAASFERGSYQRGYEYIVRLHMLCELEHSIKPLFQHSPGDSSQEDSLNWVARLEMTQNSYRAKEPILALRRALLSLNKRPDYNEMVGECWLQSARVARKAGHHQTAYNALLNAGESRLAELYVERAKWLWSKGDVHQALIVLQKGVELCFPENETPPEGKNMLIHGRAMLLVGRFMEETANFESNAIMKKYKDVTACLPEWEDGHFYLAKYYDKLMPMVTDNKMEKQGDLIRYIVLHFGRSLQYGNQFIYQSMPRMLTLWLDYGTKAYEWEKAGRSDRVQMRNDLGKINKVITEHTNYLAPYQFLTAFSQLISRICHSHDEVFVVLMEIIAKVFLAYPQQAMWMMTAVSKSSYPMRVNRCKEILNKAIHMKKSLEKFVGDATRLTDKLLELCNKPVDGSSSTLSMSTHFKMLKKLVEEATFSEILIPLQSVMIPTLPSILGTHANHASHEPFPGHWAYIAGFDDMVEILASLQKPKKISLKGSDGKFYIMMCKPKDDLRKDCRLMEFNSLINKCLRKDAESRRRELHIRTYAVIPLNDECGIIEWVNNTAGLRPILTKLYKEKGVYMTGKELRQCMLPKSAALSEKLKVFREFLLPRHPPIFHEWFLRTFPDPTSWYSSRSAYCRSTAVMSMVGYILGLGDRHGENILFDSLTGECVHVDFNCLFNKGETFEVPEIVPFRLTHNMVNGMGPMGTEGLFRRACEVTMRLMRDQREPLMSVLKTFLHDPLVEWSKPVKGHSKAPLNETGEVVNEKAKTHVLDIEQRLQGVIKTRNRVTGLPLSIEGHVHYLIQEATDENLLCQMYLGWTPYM

Row | SMILES | Ki
1 | Cc1ccccc1-c1nnc(-c2nc(-c3ccc(C(=O)N(C)C)cc3)cnc2N)o1 [IA-71, 4-[5-amino-6-[5-(o-tolyl)-1,3,4-oxadiazol-2-yl]pyrazin-2-yl]-N,N-dimethyl-benzamide] | ≤ 0.01 µM
2 | Nc1ncc(-c2ccc(NCCN3CCOCC3)nc2)nc1-c1nnc(-c2ccccc2)o1 [IA-72, 5-[6-(2-morpholinoethylamino)-3-pyridyl]-3-(5-phenyl-1,3,4-oxadiazol-2-yl)pyrazin-2-amine] | 0.1 to 5 µM
3 | CN(C)C(=O)c1ccc(-c2cnc(N)c(-c3nnc(-c4cccc(CNC(=O)OC(C)(C)C)c4)o3)n2)cc1 [IA-73, tert-butyl N-[[3-[5-[3-amino-6-[4-(dimethylcarbamoyl)phenyl]pyrazin-2-yl]-1,3,4-oxadiazol-2-yl]phenyl]methyl]carbamate] | ≤ 0.01 µM
4 | N#Cc1ncccc1-c1cnc(N)c(-c2nnc(-c3ccccc3)o2)n1 [IA-74, 3-[5-amino-6-(5-phenyl-1,3,4-oxadiazol-2-yl)pyrazin-2-yl]pyridine-2-carbonitrile] | ≤ 0.01 µM
5 | CN(C)C(=O)c1ccc(-c2cnc(N)c(-c3nnc(-c4ccc(CO)cc4)o3)n2)cc1 [IA-76, 4-[5-amino-6-[5-[4-(hydroxymethyl)phenyl]-1,3,4-oxadiazol-2-yl]pyrazin-2-yl]-N,N-dimethyl-benzamide] | ≤ 0.01 µM
6 | CC(C)S(=O)(=O)c1ccc(-c2cnc(N)c(-c3nnc(-c4cccc(C5CCCN5)c4)o3)n2)cc1 (centres unmarked) [IA-84, 5-(4-isopropylsulfonylphenyl)-3-[5-(3-pyrrolidin-2-ylphenyl)-1,3,4-oxadiazol-2-yl]pyrazin-2-amine] | ≤ 0.01 µM
7 | CN(C)C(=O)c1ccc(-c2cnc(N)c(-c3nnc(-c4cccc(O)c4)o3)n2)cc1 [IA-85, 4-[5-amino-6-[5-(3-hydroxyphenyl)-1,3,4-oxadiazol-2-yl]pyrazin-2-yl]-N,N-dimethyl-benzamide] | 0.01 to 0.1 µM
8 | COc1cnccc1-c1cnc(N)c(-c2nnc(-c3ccccc3)o2)n1 [IA-86, 5-(3-methoxy-4-pyridyl)-3-(5-phenyl-1,3,4-oxadiazol-2-yl)pyrazin-2-amine] | 0.1 to 5 µM
9 | CN(C)C(=O)c1ccc(-c2cnc(N)c(-c3nnc(-c4ccc(O)cc4)o3)n2)cc1 [IA-87, 4-[5-amino-6-[5-(4-hydroxyphenyl)-1,3,4-oxadiazol-2-yl]pyrazin-2-yl]-N,N-dimethyl-benzamide] | ≤ 0.01 µM
10 | CNCc1ccc(-c2nnc(-c3nc(-c4ccc(S(=O)(=O)C(C)CCO)cc4)cnc3N)o2)cc1 (centres unmarked) [IA-88, 3-[4-[5-amino-6-[5-[4-(methylaminomethyl)phenyl]-1,3,4-oxadiazol-2-yl]pyrazin-2-yl]phenyl]sulfonylbutan-1-ol] | ≤ 0.01 µM
11 | CC(C)[S+]([O-])c1ccc(-c2cnc(N)c(-c3nnc(-c4ccccc4)o3)n2)cc1 (centres unmarked) [IA-90, 5-(4-isopropylsulfinylphenyl)-3-(5-phenyl-1,3,4-oxadiazol-2-yl)pyrazin-2-amine] | ≤ 0.01 µM
12 | Nc1ncc(-c2cccc3ccccc23)nc1-c1nnc(-c2ccccc2)o1 [IA-93, 5-(1-naphthyl)-3-(5-phenyl-1,3,4-oxadiazol-2-yl)pyrazin-2-amine] | 0.1 to 5 µM
13 | CN(C)c1ccccc1-c1cnc(N)c(-c2nnc(-c3ccccc3)o2)n1 [IA-94, 5-(2-(dimethylamino)phenyl)-3-(5-phenyl-1,3,4-oxadiazol-2-yl)pyrazin-2-amine] | 0.1 to 5 µM
14 | Nc1ncc(-c2cccc(C(F)(F)F)c2)nc1-c1nnc(-c2ccccc2)o1 [IA-96, 3-(5-phenyl-1,3,4-oxadiazol-2-yl)-5-[3-(trifluoromethyl)phenyl]pyrazin-2-amine] | 0.1 to 5 µM
15 | NC(=O)c1cccc(-c2cnc(N)c(-c3nnc(-c4ccccc4)o3)n2)c1 [IA-100, 3-[5-amino-6-(5-phenyl-1,3,4-oxadiazol-2-yl)pyrazin-2-yl]benzamide] | 0.01 to 0.1 µM
16 | CN(C)C(=O)c1ccc(-c2cnc(N)c(-c3nnc(C4CC4)o3)n2)cc1 [IA-101, 4-[5-amino-6-(5-cyclopropyl-1,3,4-oxadiazol-2-yl)pyrazin-2-yl]-N,N-dimethyl-benzamide] | 0.1 to 5 µM
17 | CC(C)S(=O)(=O)c1ccc(-c2cnc(N)c(-c3nnc(-c4ccc(C5CCCN5)cc4)o3)n2)cc1 (centres unmarked) [IA-102, 5-(4-isopropylsulfonylphenyl)-3-[5-(4-pyrrolidin-2-ylphenyl)-1,3,4-oxadiazol-2-yl]pyrazin-2-amine] | ≤ 0.01 µM
18 | COc1ccccc1Nc1nnc(-c2nc(-c3ccc(C(=O)N(C)C)cc3)cnc2N)o1 [IA-103, 4-[5-amino-6-[5-(2-methoxyanilino)-1,3,4-oxadiazol-2-yl]pyrazin-2-yl]-N,N-dimethyl-benzamide] | 0.01 to 0.1 µM
19 | Nc1ncc(-c2ccsc2)nc1-c1nnc(-c2ccccc2)o1 [IA-104, 3-(5-phenyl-1,3,4-oxadiazol-2-yl)-5-(3-thienyl)pyrazin-2-amine] | 0.01 to 0.1 µM
20 | COC(=O)c1ccccc1-c1cnc(N)c(-c2nnc(-c3ccccc3)o2)n1 [IA-105, methyl 2-[5-amino-6-(5-phenyl-1,3,4-oxadiazol-2-yl)pyrazin-2-yl]benzoate] | 0.1 to 5 µM
21 | CN(C)C(=O)c1ccc(-c2cnc(N)c(-c3nnc(-c4ccc(C(O)CO)cc4)o3)n2)cc1 (centres unmarked) [IA-106, 4-[5-amino-6-[5-[4-(1,2-dihydroxyethyl)phenyl]-1,3,4-oxadiazol-2-yl]pyrazin-2-yl]-N,N-dimethyl-benzamide] | 0.01 to 0.1 µM
22 | CC(C)Oc1ccccc1-c1nnc(-c2nc(-c3ccc(C(=O)N(C)C)cc3)cnc2N)o1 [IA-108, 4-[5-amino-6-[5-(2-isopropoxyphenyl)-1,3,4-oxadiazol-2-yl]pyrazin-2-yl]-N,N-dimethyl-benzamide] | ≤ 0.01 µM
23 | CC(=O)c1ccc(-c2cnc(N)c(-c3nnc(-c4ccccc4)o3)n2)cc1 [IA-110, 1-[4-[5-amino-6-(5-phenyl-1,3,4-oxadiazol-2-yl)pyrazin-2-yl]phenyl]ethanone] | 0.01 to 0.1 µM
24 | Nc1ncc(-c2ccc(S(=O)(=O)N3CCC3)cc2)nc1-c1nnc(-c2ccccc2)o1 [IA-112, 5-[4-(azetidin-1-ylsulfonyl)phenyl]-3-(5-phenyl-1,3,4-oxadiazol-2-yl)pyrazin-2-amine] | ≤ 0.01 µM

Further lines, results first:

Row | Ki | SMILES
25 | 0.01 to 0.1 µM | CC(C)S(=O)(=O)c1ccc(-c2cnc(N)c(-c3nnc(CC(=O)O)o3)n2)cc1 [IA-78, 2-[5-[3-amino-6-(4-isopropylsulfonylphenyl)pyrazin-2-yl]-1,3,4-oxadiazol-2-yl]acetic acid]
26 | 0.01 to 0.1 µM | CC(C)S(=O)(=O)c1ccc(-c2cnc(N)c(-c3nnc(C(=O)N4CCCNCC4)o3)n2)cc1 [IA-79, [5-[3-amino-6-(4-isopropylsulfonylphenyl)pyrazin-2-yl]-1,3,4-oxadiazol-2-yl]-(1,4-diazepan-1-yl)methanone]
27 | ≤ 0.01 µM | CC(C)S(=O)(=O)c1ccc(-c2cnc(N)c(-c3nnc(-c4cccc([C@@H](C)N)c4)o3)n2)cc1 [IA-80, 3-[5-[3-[(1R)-1-aminoethyl]phenyl]-1,3,4-oxadiazol-2-yl]-5-(4-isopropylsulfonylphenyl)pyrazin-2-amine]
28 | 0.1 to 5 µM | CC(C)S(=O)(=O)c1ccc(-c2cnc(N)c(-c3nnc(C(=O)NC4CCCCC4N)o3)n2)cc1 (centres unmarked) [IA-81, N-(2-aminocyclohexyl)-5-[3-amino-6-(4-isopropylsulfonylphenyl)pyrazin-2-yl]-1,3,4-oxadiazole-2-carboxamide]
29 | 0.1 to 5 µM | CC(C)S(=O)(=O)c1ccc(-c2cnc(N)c(-c3nnc(NC(=O)CN)o3)n2)cc1 [IA-82, 2-amino-N-[5-[3-amino-6-(4-isopropylsulfonylphenyl)pyrazin-2-yl]-1,3,4-oxadiazol-2-yl]acetamide]
30 | ≤ 0.01 µM | CCNCc1ccc(-c2nnc(-c3nc(-c4ccc(S(=O)(=O)C(C)C)cc4)cnc3N)o2)s1 [IA-83, 3-[5-[5-(ethylaminomethyl)-2-thienyl]-1,3,4-oxadiazol-2-yl]-5-(4-isopropylsulfonylphenyl)pyrazin-2-amine]
31 | 0.1 to 5 µM | CC(C)S(=O)(=O)c1ccc(-c2cnc(N)c(-c3nnc(CCCN)o3)n2)cc1 [IA-91, 3-[5-(3-aminopropyl)-1,3,4-oxadiazol-2-yl]-5-(4-isopropylsulfonylphenyl)pyrazin-2-amine]
32 | 0.1 to 5 µM | CC(C)S(=O)(=O)c1ccc(-c2cnc(N)c(-c3nnc(CCCCN)o3)n2)cc1 [IA-92, 3-[5-(4-aminobutyl)-1,3,4-oxadiazol-2-yl]-5-(4-isopropylsulfonylphenyl) pyrazin-2-amine]
33 | 0.1 to 5 µM | CC(C)S(=O)(=O)c1ccc(-c2cnc(N)c(-c3nnc(C4=CCN(C(=O)OC(C)(C)C)CC4)o3)n2)cc1 [IA-95, tert-butyl 4-[5-[3-amino-6-(4-isopropylsulfonylphenyl)pyrazin-2-yl]-1,3,4-oxadiazol-2-yl]-3,6-dihydro-2H-pyridine-1-carboxylate]
34 | 0.01 to 0.1 µM | CC(C)S(=O)(=O)c1ccc(-c2cnc(N)c(-c3nnc(NCCCN)o3)n2)cc1 [IA-97, N-[5-[3-amino-6-(4-isopropylsulfonylphenyl)pyrazin-2-yl]-1,3,4-oxadiazol-2-yl]propane-1,3-diamine]
35 | 0.01 to 0.1 µM | CC(C)S(=O)(=O)c1ccc(-c2cnc(N)c(-c3nnc(C(=O)N4CCCC(N)C4)o3)n2)cc1 (centres unmarked) [IA-98, [5-[3-amino-6-(4-isopropylsulfonylphenyl)pyrazin-2-yl]-1,3,4-oxadiazol-2-yl]-(3-amino-1-piperidyl)methanone]
36 | ≤ 0.01 µM | CC(C)S(=O)(=O)c1ccc(-c2cnc(N)c(-c3nnc(-c4ccc(CCN)cc4)o3)n2)cc1 [IA-107, 3-[5-[4-(2-aminoethyl)phenyl]-1,3,4-oxadiazol-2-yl]-5-(4-isopropylsulfonylphenyl)pyrazin-2-amine]
37 | 0.1 to 5 µM | CC(C)S(=O)(=O)c1ccc(-c2cnc(N)c(-c3nnc(N4CCC(N)CC4)o3)n2)cc1 [IA-109, 3-[5-(4-amino-1-piperidyl)-1,3,4-oxadiazol-2-yl]-5-(4-isopropylsulfonylphenyl)pyrazin-2-amine]
38 | 0.1 to 5 µM | CC(C)S(=O)(=O)c1ccc(-c2cnc(N)c(-c3nnc(N4CC(N)C4)o3)n2)cc1 [IA-111, 3-[5-(3-aminoazetidin-1-yl)-1,3,4-oxadiazol-2-yl]-5-(4-isopropylsulfonylphenyl)pyrazin-2-amine]
